This note sets out measurements from patent publication US10017451B2, “Lactic acid extraction” (PURAC BIOCHEM BV, priority 2011, dated 2018).

What all share (format): physicochemical
Data set [1] is described as follows: Stability of solvents in contact with lactic acid feed solution, gas chromatography (Example 6). To be noted: 60° C. Here is the method:
This experiment was conducted to compare the stability of two solvents, MIBK and Isoamyl alcohol in contact with the lactic acid feed solution as prepared in example 1. For each solvent a closed glass reactor was filled with 20 g of solvent and 20 g of the lactic acid feed solution, put in an oven to maintain a temperature of 60° C. and shaken continuously.
After 3 hrs, 24 hrs (1 day) and 168 hrs (1 week) the shaking was stopped for 1 hour to allow the phases to settle, a sample was taken from the solvent top layer, and the composition of the solvent top layer analyzed by gas chromatography.

Data set [2] in a line: MIBK solubility in aqueous MgCl2 solution, gas chromatography (Example 8). The conditions noted are these: aqueous phase. Here is the method:
Hereafter, the stirring is stopped, the phases were allowed to separate and a sample was taken from the aqueous bottom phase. The concentration of MIBK in this sample was determined by gas chromatography.

The nature of data set [3]: Lactic acid distribution ratio MIBK/aqueous MgCl2 solution (Example 7). To be noted: initial lactic acid 20 wt %. The source says:
Forward extraction and back extraction as used in the method of the invention are based on the difference in solubility of the lactic acid in water and the organic solvent at different temperatures. The solubility of a compound in one solvent relative to another solvent can be expressed in terms of the distribution ratio (DR). This ratio gives an indication how a compound will be distributed over the aqueous phase (e.g. the aqueous mixture) and the organic phase (e.g. the organic liquid) in a two-phase system at equilibrium. The distribution ratio may be defined as the ratio of the lactic acid concentration dissolved in the organic phase ([lactic acid]organic) over the concentration of the lactic acid dissolved in water ([lactic acid]water) provided that the two phases are in equilibrium with each other: DR=[lactic acid]organic/[lactic acid]water(1)
The resulting two phase system was stirred at 20° C. or 60° C. for 30 minutes with sufficient speed to ensure that both phases are well dispersed. Hereafter, the stirring is stopped, the phases were allowed to separate and samples were taken from both phases. The concentration of lactic acid (wt %) in these samples was determined by potentiometric titration. Hereafter the distribution ratio was calculated as the ratio of the lactic acid concentration (wt %) in the MIBK organic solvent phase divided by the lactic acid concentration (wt %) in the aqueous phase.

SMILES strings stand for the structures.

Take `CC(=O)CC(C)C` [MIBK, methyl-isobutyl-ketone]: the “changes in purity of the solvent” value in data set [1] (after 168 hrs, GC of solvent top layer) is listed as “no changes in the purity of the MIBK could be detected”. Moreover, the MIBK solubility in data set [2] (MgCl2 0 wt %, 20° C.) is reported as 1.8 wt %; in data set [2] (MgCl2 0 wt %, 60° C.), 1.4 wt %; in data set [2] (MgCl2 15 wt %, 20° C.), 0.48 wt %; in data set [2] (MgCl2 15 wt %, 60° C.) it was 0.20 wt %; in data set [2] (MgCl2 30 wt %, 20° C.), 0.17 wt %; in data set [2] (MgCl2 30 wt %, 60° C.), 0.11 wt %.
In data set [1] (24 hrs and 168 hrs samples), `CC(C)CCO` [isoamyl alcohol] registered an isoamyllactate concentration of 22.5 area %. In data set [1] (after 3 hrs, GC of solvent top layer), this molecule gave an isoamyllactate formed of 14.6 area %.
`CC(O)C(=O)O` (stereo not drawn) [lactic acid]: the “Lactic acid distribution ratio” value in data set [3] (MgCl2 0 wt %, 20° C.) is 0.16 wt %/wt %; in data set [3] (MgCl2 0 wt %, 60° C.), 0.19 wt %/wt %; in data set [3] (MgCl2 10.5 wt %, 20° C.), 0.33 wt %/wt %; in data set [3] (MgCl2 10.5 wt %, 60° C.), 0.37 wt %/wt %; in data set [3] (MgCl2 16.0 wt %, 20° C.), 0.49 wt %/wt %; in data set [3] (MgCl2 16.0 wt %, 60° C.), 0.56 wt %/wt %.
